# From ChEMBL document CHEMBL1126865, “Structure-activity relationship within a series of pyrazolidinone antibacterial agents. 2. Effect of side-chain modification on in vitro activity and pharmacokinetic parameters” (J Med Chem, 1993)
# What was measured:
# Assay type in all cases: functional
# [1] = test system: Staphylococcus epidermidis; assay: In vitro antibacterial activity against Staphylococcus epidermidis 222
# Staphylococcus aureus = assay: In vitro antibacterial activity against Staphylococcus aureus X1.1
# Klebsiella aerogenes = assay: In vitro antibacterial activity against Enterobacter aerogenes C32
# Escherichia coli = assay: In vitro antibacterial activity against Escherichia coli EC14
# Pseudomonas aeruginosa = assay: In vitro antibacterial activity against Pseudomonas PS72
# Haemophilus influenzae = assay: In vitro antibacterial activity against Haemophilus influenza C.L
# Streptococcus pneumoniae = assay: In vitro antibacterial activity against Streptococcus pneumoniae PARK
# Klebsiella pneumoniae = assay: In vitro antibacterial activity against Klebsiella X26
Compound,MIC [1],MIC (Staphylococcus aureus),MIC (Klebsiella aerogenes),MIC (Escherichia coli),MIC (Pseudomonas aeruginosa),MIC (Haemophilus influenzae),MIC (Streptococcus pneumoniae),MIC (Klebsiella pneumoniae)
C=CCO/N=C(/C(=O)N[C@H]1CN2CC(S(C)(=O)=O)=C(C(=O)O)N2C1=O)c1csc(N)n1,16 µg/mL,8 µg/mL,0.25 µg/mL,0.125 µg/mL,128 µg/mL,0.125 µg/mL,0.125 µg/mL,0.03 µg/mL
C=CCO/N=C(/C(=O)N[C@H]1CN2CC(S(=O)(=O)CCC)=C(C(=O)O)N2C1=O)c1csc(N)n1,32 µg/mL,16 µg/mL,0.5 µg/mL,0.5 µg/mL,> 128 µg/mL,0.25 µg/mL,0.06 µg/mL,0.06 µg/mL
C#CCO/N=C(/C(=O)N[C@H]1CN2CC(S(C)(=O)=O)=C(C(=O)O)N2C1=O)c1csc(N)n1,32 µg/mL,32 µg/mL,0.5 µg/mL,0.25 µg/mL,> 128 µg/mL,0.25 µg/mL,0.25 µg/mL,0.125 µg/mL
N#CC1=C(C(=O)O)N2C(=O)[C@@H](NC(=O)Cn3cnnn3)CN2C1,> 128 µg/mL,> 128 µg/mL,> 128 µg/mL,> 128 µg/mL,> 128 µg/mL,> 128 µg/mL,> 128 µg/mL,> 128 µg/mL
C=CCO/N=C(/C(=O)N[C@H]1CN2CC(C#N)=C(C(=O)O)N2C1=O)c1csc(N)n1,16 µg/mL,32 µg/mL,0.5 µg/mL,0.125 µg/mL,> 128 µg/mL,0.125 µg/mL,0.125 µg/mL,0.06 µg/mL
CS(=O)(=O)C1=C(C(=O)O)N2C(=O)[C@@H](NC(=O)/C(=N/OCCF)c3csc(N)n3)CN2C1,16 µg/mL,16 µg/mL,0.06 µg/mL,0.015 µg/mL,128 µg/mL,0.25 µg/mL,0.06 µg/mL,0.03 µg/mL
CC(C)(O/N=C(/C(=O)N[C@H]1CN2CC(C#N)=C(C(=O)O)N2C1=O)c1csc(N)n1)C(=O)O,> 128 µg/mL,> 128 µg/mL,0.125 µg/mL,0.03 µg/mL,64 µg/mL,0.06 µg/mL,16 µg/mL,0.25 µg/mL
CCCS(=O)(=O)C1=C(C(=O)O)N2C(=O)[C@@H](NC(=O)/C(=N/OCCBr)c3csc(N)n3)CN2C1,8 µg/mL,8 µg/mL,0.5 µg/mL,0.25 µg/mL,> 128 µg/mL,0.125 µg/mL,0.06 µg/mL,0.03 µg/mL
CC(C)(O/N=C(/C(=O)N[C@H]1CN2CC(S(C)(=O)=O)=C(C(=O)O)N2C1=O)c1csc(N)n1)C(=O)O,> 128 µg/mL,> 128 µg/mL,0.06 µg/mL,0.03 µg/mL,8 µg/mL,0.06 µg/mL,2 µg/mL,0.125 µg/mL
N#CC1=C(C(=O)O)N2C(=O)[C@@H](NC(=O)Cc3cccs3)CN2C1,32 µg/mL,8 µg/mL,64 µg/mL,16 µg/mL,> 128 µg/mL,16 µg/mL,2 µg/mL,32 µg/mL
CS(=O)(=O)C1=C(C(=O)O)N2C(=O)[C@@H](NC(=O)/C(=N/OCCCl)c3csc(N)n3)CN2C1,32 µg/mL,16 µg/mL,0.125 µg/mL,0.125 µg/mL,> 128 µg/mL,0.5 µg/mL,0.25 µg/mL,0.03 µg/mL

# The remaining lines, values ahead:
MIC [1],MIC (Staphylococcus aureus),MIC (Klebsiella aerogenes),MIC (Escherichia coli),MIC (Pseudomonas aeruginosa),MIC (Haemophilus influenzae),MIC (Streptococcus pneumoniae),MIC (Klebsiella pneumoniae),Compound
8 µg/mL,8 µg/mL,1 µg/mL,0.25 µg/mL,128 µg/mL,0.25 µg/mL,0.5 µg/mL,0.06 µg/mL,C=CCCCO/N=C(/C(=O)N[C@H]1CN2CC(S(C)(=O)=O)=C(C(=O)O)N2C1=O)c1csc(N)n1
4 µg/mL,4 µg/mL,1 µg/mL,0.25 µg/mL,> 128 µg/mL,0.125 µg/mL,0.06 µg/mL,0.03 µg/mL,CCCCO/N=C(/C(=O)N[C@H]1CN2CC(S(C)(=O)=O)=C(C(=O)O)N2C1=O)c1csc(N)n1
8 µg/mL,8 µg/mL,8 µg/mL,8 µg/mL,> 128 µg/mL,0.25 µg/mL,0.06 µg/mL,0.125 µg/mL,N#CC1=C(C(=O)O)N2C(=O)[C@@H](NC(=O)/C(=N/OCc3ccccc3)c3csc(N)n3)CN2C1
8 µg/mL,8 µg/mL,0.25 µg/mL,0.06 µg/mL,> 128 µg/mL,0.25 µg/mL,0.125 µg/mL,0.015 µg/mL,CCS(=O)(=O)C1=C(C(=O)O)N2C(=O)[C@@H](NC(=O)/C(=N/OCCBr)c3csc(N)n3)CN2C1
8 µg/mL,4 µg/mL,128 µg/mL,32 µg/mL,> 128 µg/mL,32 µg/mL,0.5 µg/mL,16 µg/mL,N#CC1=C(C(=O)O)N2C(=O)[C@@H](NC(=O)CSc3ccccc3)CN2C1
8 µg/mL,4 µg/mL,2 µg/mL,0.5 µg/mL,> 128 µg/mL,0.25 µg/mL,0.06 µg/mL,0.06 µg/mL,CC(C)=CCO/N=C(/C(=O)N[C@H]1CN2CC(S(C)(=O)=O)=C(C(=O)O)N2C1=O)c1csc(N)n1
